In ChEMBL document CHEMBL4325829, “Design and Synthesis of Tubulin and Histone Deacetylase Inhibitor Based on iso-Combretastatin A-4” (J Med Chem, 2018):
Converted amounts (≈) assume the structure as drawn. The source made the active and inactive calls. The rule behind the calls is not given here.

Assays:
[1] = Inhibition of sheep brain tubulin polymerization assessed as reduction in rate of microtubule assembly by DAPI-fluorescence based assay; set-up: species or system Ovis aries
[2] = target: Histone deacetylase 1 (Homo sapiens) (UniProt Q13547); test: Inhibition of human recombinant HDAC1 at 10^-5 M after 15 mins using fluorogenic substrate by fluorimetric assay relative to control
[3] = target: Histone deacetylase 3 (Homo sapiens) (UniProt O15379); test: Inhibition of human recombinant HDAC3 at 10^-5 M after 10 mins using fluorogenic substrate by fluorimetric assay relative to control
[4] = target: T1, Protein deacetylase HDAC6 (Homo sapiens) (UniProt Q9UBN7); test: Inhibition of human recombinant HDAC6 at 10^-5 M after 30 mins using fluorogenic substrate by fluorimetric assay relative to control
T1 sequence (whole entry): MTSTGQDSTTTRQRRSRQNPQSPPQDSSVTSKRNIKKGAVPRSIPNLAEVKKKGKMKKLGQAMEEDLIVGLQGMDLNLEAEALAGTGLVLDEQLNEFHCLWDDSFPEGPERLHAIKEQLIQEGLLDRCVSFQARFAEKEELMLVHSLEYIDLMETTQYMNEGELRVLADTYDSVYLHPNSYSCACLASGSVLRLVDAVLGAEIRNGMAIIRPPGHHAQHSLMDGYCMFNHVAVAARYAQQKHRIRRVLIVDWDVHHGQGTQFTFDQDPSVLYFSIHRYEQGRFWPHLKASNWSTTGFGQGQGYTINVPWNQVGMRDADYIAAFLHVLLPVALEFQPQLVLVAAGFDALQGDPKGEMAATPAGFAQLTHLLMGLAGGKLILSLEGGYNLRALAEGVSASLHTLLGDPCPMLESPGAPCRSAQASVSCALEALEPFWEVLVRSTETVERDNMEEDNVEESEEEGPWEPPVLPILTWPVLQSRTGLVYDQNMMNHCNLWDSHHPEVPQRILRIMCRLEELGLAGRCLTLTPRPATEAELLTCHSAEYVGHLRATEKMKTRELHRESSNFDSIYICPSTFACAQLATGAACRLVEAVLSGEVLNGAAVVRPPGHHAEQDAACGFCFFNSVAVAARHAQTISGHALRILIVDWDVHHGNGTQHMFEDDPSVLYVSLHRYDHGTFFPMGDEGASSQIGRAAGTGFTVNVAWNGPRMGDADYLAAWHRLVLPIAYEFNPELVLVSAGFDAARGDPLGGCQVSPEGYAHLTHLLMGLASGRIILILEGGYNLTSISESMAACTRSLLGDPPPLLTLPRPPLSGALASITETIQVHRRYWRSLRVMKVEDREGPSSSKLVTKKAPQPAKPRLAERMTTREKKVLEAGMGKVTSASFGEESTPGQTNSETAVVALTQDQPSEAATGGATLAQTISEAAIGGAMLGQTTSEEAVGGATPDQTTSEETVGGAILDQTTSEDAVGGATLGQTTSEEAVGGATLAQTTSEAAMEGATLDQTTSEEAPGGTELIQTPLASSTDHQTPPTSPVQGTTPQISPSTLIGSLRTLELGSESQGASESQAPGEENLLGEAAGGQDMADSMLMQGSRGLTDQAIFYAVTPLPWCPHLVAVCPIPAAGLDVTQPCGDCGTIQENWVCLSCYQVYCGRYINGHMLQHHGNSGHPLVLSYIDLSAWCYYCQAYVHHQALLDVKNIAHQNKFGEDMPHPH

[5] = target: Histone deacetylase 11 (Homo sapiens) (UniProt Q96DB2); test: Inhibition of human recombinant HDAC11 at 10^-5 M after 45 mins using fluorogenic substrate by fluorimetric assay relative to control
K562 = test: Antiproliferative activity against human K562 cells after 72 hrs by MTS assay; assay type: functional; details: Homo sapiens, K562, 72 h
PC-3 = test: Antiproliferative activity against human PC3 cells after 72 hrs by MTS assay; assay type: functional; details: Homo sapiens, PC-3, 72 h
BXPC-3 = test: Antiproliferative activity against human BxPC3 cells after 72 hrs by MTS assay; assay type: functional; details: Homo sapiens, BXPC-3, 72 h
HT-29 [6] = test: Antiproliferative activity against human HT-29 cells after 72 hrs by MTS assay; assay type: functional; details: Homo sapiens, HT-29, 72 h
[7] = target: Histone deacetylase (Homo sapiens) (UniProt Q13547+O15379+Q9UBN7+Q92769+Q9UQL6+Q8WUI4+Q9BY41+Q96DB2+P56524+Q9UKV0+Q969S8); test: Inhibition of HDAC in human HT-29 cells assessed as gamma-H2AX phosphorylation after 3 days by Western blot analysis; assay type: cell-based
HCT-116 = test: Induction of cell cycle arrest in human HCT116 cells assessed as accumulation at G2/M phase at 5 to 10 nM after 24 hrs by propidium iodide-staining based flow cytometry; assay type: functional
Tubulin (Homo sapiens) = Tubulin (Homo sapiens) (UniProt P68371+Q9H4B7+P0DPH7+P68366+Q13509+Q71U36+P04350+Q3ZCM7+P07437+P68363+Q9BQE3+Q6PEY2+Q13885+Q9BVA1+Q9BUF5); test: Inhibition of tubulin polymerization in human K562 cells assessed as shrinkage of microtubule spindles at 10 nM after 24 hrs by DAPI-staining based inverted microscopy; assay type: cell-based
[8] = Aqueous solubility of the compound; assay type: physicochemical; details: water
[9] = Lipophilicity, log P of the compound; assay type: physicochemical; details: octanol/water
K-562R = test: Potency index, ratio of IC50 for TSA to IC50 for test compound for antiproliferative activity against human K562R cells after 72 hrs by MTS assay; assay type: functional
HT-29 [10] = test: Potency index, ratio of IC50 for TSA to IC50 for test compound for antiproliferative activity against human HT-29 cells after 72 hrs by MTS assay; assay type: functional
HT-29 [11] = test: Potency index, ratio of IC50 for isoCA4 to IC50 for test compound for antiproliferative activity against human HT-29 cells after 72 hrs by MTS assay; assay type: functional
Histone deacetylase 8 = target: T2, Histone deacetylase 8 (Homo sapiens, UniProt Q9BY41); test: Inhibition of human recombinant HDAC8 after 30 mins using fluorogenic substrate by fluorimetric assay
T2 sequence (Q9BY41 whole entry): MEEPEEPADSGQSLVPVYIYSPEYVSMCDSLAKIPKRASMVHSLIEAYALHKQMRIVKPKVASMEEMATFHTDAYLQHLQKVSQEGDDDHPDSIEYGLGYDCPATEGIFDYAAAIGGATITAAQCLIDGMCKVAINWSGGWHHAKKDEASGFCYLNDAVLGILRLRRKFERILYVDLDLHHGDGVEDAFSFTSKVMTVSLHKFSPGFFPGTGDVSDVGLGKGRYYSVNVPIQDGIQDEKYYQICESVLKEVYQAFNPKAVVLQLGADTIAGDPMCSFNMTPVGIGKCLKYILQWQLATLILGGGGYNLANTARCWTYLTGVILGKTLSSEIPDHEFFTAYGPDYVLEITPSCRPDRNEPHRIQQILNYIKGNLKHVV

HT-29 [12] = test: Antiproliferative activity against human HT-29 cells in presence of TSA after 72 hrs by MTS assay relative to control; assay type: functional, cell-based; details: HT-29, 72 h
[13] = target: T3, Protein deacetylase HDAC6 (Homo sapiens, UniProt Q9UBN7)
T3 sequence (Q9UBN7 whole entry): T1 sequence (whole entry)
Description: Inhibition of human recombinant HDAC6 after 30 mins using fluorogenic substrate by fluorimetric assay

Histone deacetylase 11 (Homo sapiens), sequence (Q96DB2 whole entry): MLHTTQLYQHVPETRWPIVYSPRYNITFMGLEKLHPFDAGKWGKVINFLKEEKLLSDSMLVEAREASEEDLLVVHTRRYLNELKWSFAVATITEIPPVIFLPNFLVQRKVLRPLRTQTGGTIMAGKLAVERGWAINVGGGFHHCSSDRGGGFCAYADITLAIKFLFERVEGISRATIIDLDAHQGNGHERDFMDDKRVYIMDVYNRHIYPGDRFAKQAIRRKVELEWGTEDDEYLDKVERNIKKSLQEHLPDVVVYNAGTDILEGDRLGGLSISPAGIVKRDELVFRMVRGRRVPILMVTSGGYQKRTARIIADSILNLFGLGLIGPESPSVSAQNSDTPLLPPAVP
Histone deacetylase 3 (Homo sapiens), sequence (O15379 whole entry): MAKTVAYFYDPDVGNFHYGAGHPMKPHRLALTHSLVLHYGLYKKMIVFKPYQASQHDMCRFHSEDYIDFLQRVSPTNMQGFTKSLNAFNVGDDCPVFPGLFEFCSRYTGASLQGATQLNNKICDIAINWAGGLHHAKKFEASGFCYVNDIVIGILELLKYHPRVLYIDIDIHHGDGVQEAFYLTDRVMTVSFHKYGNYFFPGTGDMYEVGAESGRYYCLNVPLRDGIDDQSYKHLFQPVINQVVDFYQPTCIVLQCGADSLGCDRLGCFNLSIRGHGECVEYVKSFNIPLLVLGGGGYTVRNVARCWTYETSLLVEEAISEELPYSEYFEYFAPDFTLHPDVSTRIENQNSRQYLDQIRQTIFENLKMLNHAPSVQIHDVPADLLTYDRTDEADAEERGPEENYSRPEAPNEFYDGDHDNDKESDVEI
Histone deacetylase 1 (Homo sapiens), sequence (Q13547 whole entry): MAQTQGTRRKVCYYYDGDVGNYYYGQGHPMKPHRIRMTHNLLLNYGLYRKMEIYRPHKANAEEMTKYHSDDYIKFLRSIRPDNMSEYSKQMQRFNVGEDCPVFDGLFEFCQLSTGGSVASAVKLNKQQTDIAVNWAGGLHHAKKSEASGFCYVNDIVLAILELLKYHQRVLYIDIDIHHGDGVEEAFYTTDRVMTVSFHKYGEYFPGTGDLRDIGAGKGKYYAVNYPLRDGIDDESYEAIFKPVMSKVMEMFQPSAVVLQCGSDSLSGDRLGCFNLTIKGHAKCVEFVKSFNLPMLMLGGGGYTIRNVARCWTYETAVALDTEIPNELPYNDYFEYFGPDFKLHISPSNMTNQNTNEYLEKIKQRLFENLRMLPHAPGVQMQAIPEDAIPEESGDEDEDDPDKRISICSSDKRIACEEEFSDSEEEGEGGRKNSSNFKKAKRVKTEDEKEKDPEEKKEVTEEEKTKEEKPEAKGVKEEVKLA

SMILES | IC50 [1] | inhibition [2] | inhibition [3] | inhibition [4] | inhibition [5] | GI50 (K562) | GI50 (PC-3) | GI50 (BXPC-3) | GI50 (HT-29 [6]) | solubility [8] | also measured
C=C(c1ccc(OC)c(/C=C/C(=O)NO)c1)c1cc(OC)c(OC)c(OC)c1 | 1600 nM | < 50% | < 50% | < 50% | 60% | 1.6 nM | 0.4 nM | 2.9 nM | 2.04 nM | 69.3 µg/mL (≈ 180 µM) | inhibition [7]: Dose-dependent effect; Activity (HCT-116): Active; Activity (Tubulin (Homo sapiens)): Active; logP ([9]; read-out: logP): 2.93; Ratio IC50 (K-562R): 60; Ratio IC50 (HT-29 [10]): 17; Ratio IC50 (HT-29 [11]): 135
C=C(c1ccc(OC)c(O)c1)c1cc(OC)c(OC)c(OC)c1 | 2000 nM | inactive | inactive | inactive | inactive | 5.2 nM | 3 nM | 20 nM | 276 nM | 11.6 µg/mL (≈ 36.7 µM) | IC50 (Histone deacetylase 8): Not Active; logP [9]: 2.16; IC50 (HT-29 [12]): 3.8 nM; IC50 [13]: Not Active
